Source: patent US9334264B2, “NAMPT inhibitors” (AbbVie Inc., priority 2012, dated 2016)

Key:
[1] = molecular target: NAMPT (human, recombinant, C-terminally His-tagged) (Homo sapiens, UniProt P43490); test: Time-Resolved Fluorescence Resonance Energy Transfer (TR-FRET) Binding Assay of NAMPT; conditions: absence of substrates; 6.8 nM NAMPT, 200 nM probe, equilibrated 3 hours
Protocol: Determination of the utility of compounds having Formula (I) as binders to and inhibitors of NAMPT was performed using Time-Resolved Fluorescence Resonance Energy Transfer (TR-FRET) binding assays.
Time-Resolved Fluorescence Resonance Energy Transfer (TR-FRET) Binding Assay of NAMPT
Test compounds were serially diluted (typically 11 half log dilutions) in neat DMSO to 50× final concentrations prior to dilution with assay buffer (50 mM HEPES (NaOH), pH 7.5, 100 mM NaCl, 10 mM MgCl2, 1 mM DTT, 1% Glycerol) to 3× and 6% DMSO. Six μL were transferred to 384-well low-volume plates (Owens Corning #3673). To this, 12 μL of a 1.5× solution containing enzyme, probe and antibody were added. Final concentrations in the 18 μL reactions were 1× assay buffer, 2% DMSO, 6.8 nM NAMPT (human, recombinant, C-terminally His-tagged), 200 nM probe (a potent nicotinamide-competitive inhibitor conjugated to Oregon Green 488) and 1 nM Tb-anti-His antibody (Invitrogen #PV5895). Reactions were equilibrated at room temperature for 3 hours prior to reading on an Envision multi-label plate reader (Perkin Elmer; Ex=337 nm, Em=520 and 495 nm). Time-resolved FRET ratios (Em520/Em495) were normalized to controls, plotted as a function of compound concentration and fit with the four-parameter logistic equation to determine IC50s.

[2] = molecular target: NAMPT (Homo sapiens, UniProt P43490); test: Time-Resolved Fluorescence Resonance Energy Transfer (TR-FRET) Binding Assay of NAMPT with PRPP; conditions: 200 μM PRPP and 2.5 mM ATP; 2 nM NAMPT, 2 nM probe, equilibrated 16 hours
Protocol: Time-Resolved Fluorescence Resonance Energy Transfer (TR-FRET) Binding Assay of NAMPT with PRPP
Compound handling and data processing were identical to the assay in the absence of substrates (above). Final concentrations were 1× assay buffer, 2% DMSO, 2 nM NAMPT, 2 nM probe, 1 nM Tb-anti-His antibody (Invitrogen #PV5895), 200 μM PRPP and 2.5 mM ATP. Reactions were equilibrated for 16 hours prior to measurement to allow for potential enzymatic modification of test compounds.

Sequence of NAMPT (human, recombinant, C-terminally His-tagged) (P43490 whole entry): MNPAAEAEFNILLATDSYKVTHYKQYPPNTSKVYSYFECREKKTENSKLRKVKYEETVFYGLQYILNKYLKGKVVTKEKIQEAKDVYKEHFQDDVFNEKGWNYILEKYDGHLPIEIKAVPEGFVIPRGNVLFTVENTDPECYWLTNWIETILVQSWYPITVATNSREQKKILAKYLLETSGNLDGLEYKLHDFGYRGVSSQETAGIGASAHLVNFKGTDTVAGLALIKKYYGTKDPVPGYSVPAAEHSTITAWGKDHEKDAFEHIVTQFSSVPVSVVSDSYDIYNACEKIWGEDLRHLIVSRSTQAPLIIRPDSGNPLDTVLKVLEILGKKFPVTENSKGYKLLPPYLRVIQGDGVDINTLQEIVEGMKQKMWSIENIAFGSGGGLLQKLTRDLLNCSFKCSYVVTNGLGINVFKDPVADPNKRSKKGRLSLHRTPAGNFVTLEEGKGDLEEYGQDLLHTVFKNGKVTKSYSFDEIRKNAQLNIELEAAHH
Sequence of NAMPT (P43490 whole entry): as above

SMILES	IC50 [1]	IC50 [2]
COCCC(=O)N(CCN1CCOC1=O)c1ncc(C(=O)NCCCn2ccnc2)s1 [Example 198, N-[3-(1H-imidazol-1-yl)propyl]-2-{(3-methoxypropanoyl)[2-(2-oxo-1,3-oxazolidin-3-yl)ethyl]amino}-1,3-thiazole-5-carboxamide]	2610 nM	0.633 nM
O=C(NCCCn1ccnc1)c1cnc(N(Cc2ccc(F)cc2)Cc2ccc(-c3cccnc3)cc2)s1 [Example 1, 2-{(4-fluorobenzyl)[4-(pyridin-3-yl)benzyl]amino}-N-[3-(1H-imidazol-1-yl)propyl]-1,3-thiazole-5-carboxamide]	63.8 nM	–
O=C(NCCCn1ccnc1)c1cnc(N(Cc2ccc(F)cc2)C(=O)CN2CCCC(O)C2)s1 (stereo not drawn) [Example 41, 2-{(4-fluorobenzyl)[(3-hydroxypiperidin-1-yl)acetyl]amino}-N-[3-(1H-imidazol-1-yl)propyl]-1,3-thiazole-5-carboxamide]	8500 nM	29.7 nM
COCCN(C(=O)Cc1ccccn1)c1ncc(C(=O)NCCCn2ccnc2)s1 [Example 213, N-[3-(1H-imidazol-1-yl)propyl]-2-[(2-methoxyethyl)(pyridin-2-ylacetyl)amino]-1,3-thiazole-5-carboxamide]	9860 nM	0.411 nM
O=C(NCCCn1ccnc1)c1cnc(N(Cc2ccc(Cl)cn2)C(=O)C2CCOCC2)s1 [Example 205, 2-{[(5-chloropyridin-2-yl)methyl](tetrahydro-2H-pyran-4-ylcarbonyl)amino}-N-[3-(1H-imidazol-1-yl)propyl]-1,3-thiazole-5-carboxamide]	739 nM	0.177 nM
COCCC(=O)N(CC1CCCCO1)c1ncc(C(=O)NCCCn2ccnc2)s1 (stereo not drawn) [Example 177, N-[3-(1H-imidazol-1-yl)propyl]-2-[(3-methoxypropanoyl)(tetrahydro-2H-pyran-2-ylmethyl)amino]-1,3-thiazole-5-carboxamide]	4620 nM	0.653 nM
CNC(=O)CN(Cc1ccc(F)cc1)c1ncc(C(=O)NCCCn2ccnc2)s1 [Example 18, 2-{(4-fluorobenzyl)[2-(methylamino)-2-oxoethyl]amino}-N-[3-(1H-imidazol-1-yl)propyl]-1,3-thiazole-5-carboxamide]	4820 nM	814 nM
COCCC(=O)N(CCCNC(C)=O)c1ncc(C(=O)NCCCn2ccnc2)s1 [Example 201, 2-{[3-(acetylamino)propyl](3-methoxypropanoyl)amino}-N-[3-(1H-imidazol-1-yl)propyl]-1,3-thiazole-5-carboxamide]	> 10000 nM	0.457 nM
N#Cc1ccc(CN(C(=O)NCCC(=O)O)c2ncc(C(=O)NCCCn3ccnc3)s2)cc1 [Example 171, N-[(4-cyanobenzyl)(5-{[3-(1H-imidazol-1-yl)propyl]carbamoyl}-1,3-thiazol-2-yl)carbamoyl]-beta-alanine]	8790 nM	32.1 nM
COCCN(C(=O)Cc1ccc(Oc2ccccc2)cc1)c1ncc(C(=O)NCCCn2ccnc2)s1 [Example 186, N-[3-(1H-imidazol-1-yl)propyl]-2-{(2-methoxyethyl)[(4-phenoxyphenyl)acetyl]amino}-1,3-thiazole-5-carboxamide]	1100 nM	1.23 nM
O=C(NCCCn1ccnc1)c1cnc(N(Cc2ccc(F)cc2)Cc2c(Cl)ccc3c2OCO3)s1 [Example 14, 2-{[(5-chloro-1,3-benzodioxol-4-yl)methyl](4-fluorobenzyl)amino}-N-[3-(1H-imidazol-1-yl)propyl]-1,3-thiazole-5-carboxamide]	–	338 nM
CN(C)CC(=O)N(Cc1ccc(F)cc1)c1ncc(C(=O)NCCCn2ccnc2)s1 [Example 26, 2-[(N,N-dimethylglycyl)(4-fluorobenzyl)amino]-N-[3-(1H-imidazol-1-yl)propyl]-1,3-thiazole-5-carboxamide]	–	1.21 nM

Continued, values first:

IC50 [1]	IC50 [2]	SMILES
1930 nM	1.8 nM	COCCC(=O)N(CCc1cccc(Cl)c1)c1ncc(C(=O)NCCCn2ccnc2)s1 [Example 106, 2-{[2-(3-chlorophenyl)ethyl](3-methoxypropanoyl)amino}-N-[3-(1H-imidazol-1-yl)propyl]-1,3-thiazole-5-carboxamide acetate (1:1)]
> 10000 nM	0.727 nM	CC(O)CNC(=O)N(Cc1ccc(C#N)cc1)c1ncc(C(=O)NCCCn2ccnc2)s1 (stereo not drawn) [Example 128, 2-{(4-cyanobenzyl)[(2-hydroxypropyl)carbamoyl]amino}-N-[3-(1H-imidazol-1-yl)propyl]-1,3-thiazole-5-carboxamide]
3200 nM	1.72 nM	CCC(COC)NC(=O)N(Cc1ccc(F)cc1)c1ncc(C(=O)NCCCn2ccnc2)s1 (stereo not drawn) [Example 84, 2-{(4-fluorobenzyl)[(1-methoxybutan-2-yl)carbamoyl]amino}-N-[3-(1H-imidazol-1-yl)propyl]-1,3-thiazole-5-carboxamide]
4850 nM	1.02 nM	N#Cc1ccc(CN(C(=O)NCCCCO)c2ncc(C(=O)NCCCn3ccnc3)s2)cc1 [Example 132, 2-{(4-cyanobenzyl)[(4-hydroxybutyl)carbamoyl]amino}-N-[3-(1H-imidazol-1-yl)propyl]-1,3-thiazole-5-carboxamide]
707 nM	2.33 nM	CC(C)CCN(C(=O)CC1CCCO1)c1ncc(C(=O)NCCCn2ccnc2)s1 (stereo not drawn) [Example 173, N-[3-(1H-imidazol-1-yl)propyl]-2-[(3-methylbutyl)(tetrahydrofuran-2-ylacetyl)amino]-1,3-thiazole-5-carboxamide]
1010 nM	0.881 nM	N#Cc1ccc(CCN(C(=O)CC2CCOC2)c2ncc(C(=O)NCCCn3ccnc3)s2)cc1 (stereo not drawn) [Example 52, 2-{[2-(4-cyanophenyl)ethyl](tetrahydrofuran-3-ylacetyl)amino}-N-[3-(1H-imidazol-1-yl)propyl]-1,3-thiazole-5-carboxamide]
> 10000 nM	1.33 nM	O=CN1CCN(CC(=O)N(Cc2ccc(F)cc2)c2ncc(C(=O)NCCCn3ccnc3)s2)CC1 [Example 32, 2-{(4-fluorobenzyl)[(4-formylpiperazin-1-yl)acetyl]amino}-N-[3-(1H-imidazol-1-yl)propyl]-1,3-thiazole-5-carboxamide]
7360 nM	0.365 nM	COCCCN(C(=O)CCOC)c1ncc(C(=O)NCCCn2ccnc2)s1 [Example 176, N-[3-(1H-imidazol-1-yl)propyl]-2-[(3-methoxypropanoyl)(3-methoxypropyl)amino]-1,3-thiazole-5-carboxamide]
> 10000 nM	2.25 nM	CCC(CNC(=O)N(Cc1ccc(F)cc1)c1ncc(C(=O)NCCCn2ccnc2)s1)OC (stereo not drawn) [Example 90, 2-{(4-fluorobenzyl)[(2-methoxybutyl)carbamoyl]amino}-N-[3-(1H-imidazol-1-yl)propyl]-1,3-thiazole-5-carboxamide]
8020 nM	1.37 nM	COCC(C)NC(=O)N(Cc1ccc(F)cc1)c1ncc(C(=O)NCCCn2ccnc2)s1 (stereo not drawn) [Example 80, 2-{(4-fluorobenzyl)[(1-methoxypropan-2-yl)carbamoyl]amino}-N-[3-(1H-imidazol-1-yl)propyl]-1,3-thiazole-5-carboxamide]
> 10000 nM	3.99 nM	CC1(C)CN(C(=O)N(Cc2ccc(F)cc2)c2ncc(C(=O)NCCCn3ccnc3)s2)CCO1 [Example 72, N-(4-fluorobenzyl)-N-(5-{[3-(1H-imidazol-1-yl)propyl]carbamoyl}-1,3-thiazol-2-yl)-2,2-dimethylmorpholine-4-carboxamide]
–	71.5 nM	CN(Cc1ccc(F)cc1)c1ncc(C(=O)NCCCn2ccnc2)s1 [Example 3, 2-[(4-fluorobenzyl)(methyl)amino]-N-[3-(1H-imidazol-1-yl)propyl]-1,3-thiazole-5-carboxamide]
–	1220 nM	O=C(NCCCn1ccnc1)c1cnc(N(Cc2ccc(F)cc2)Cc2cc(Cl)ccc2Cl)s1 [Example 17, 2-[(2,5-dichlorobenzyl)(4-fluorobenzyl)amino]-N-[3-(1H-imidazol-1-yl)propyl]-1,3-thiazole-5-carboxamide]
–	12500 nM	CC(C)NC(=O)CN(Cc1ccc(F)cc1)c1ncc(C(=O)NCCCn2ccnc2)s1 [Example 19, 2-{(4-fluorobenzyl)[2-oxo-2-(propan-2-ylamino)ethyl]amino}-N-[3-(1H-imidazol-1-yl)propyl]-1,3-thiazole-5-carboxamide]
–	12500 nM	CN(C)C(=O)CN(Cc1ccc(F)cc1)c1ncc(C(=O)NCCCn2ccnc2)s1 [Example 20, 2-{[2-(dimethylamino)-2-oxoethyl](4-fluorobenzyl)amino}-N-[3-(1H-imidazol-1-yl)propyl]-1,3-thiazole-5-carboxamide]
–	641 nM	O=C(NCCCn1ccnc1)c1cnc(N(CCN2CCCC2)Cc2ccc(F)cc2)s1 [Example 9, 2-{(4-fluorobenzyl)[2-(pyrrolidin-1-yl)ethyl]amino}-N-[3-(1H-imidazol-1-yl)propyl]-1,3-thiazole-5-carboxamide]
